The values below come from publication PMC2970562, “High-Affinity Inhibitors of Human NAD^+-Dependent 15-Hydroxyprostaglandin Dehydrogenase: Mechanisms of Inhibition and Structure-Activity Relationships” (PLoS ONE, 2010).

In general, IC50 refers to the concentration at which inhibition is half-maximal.

Structures are written as SMILES. Like-named read-outs stand apart in the source and are kept apart here.

For experiment [1], the target named is T1, human 15-PGDH (Homo sapiens, UniProt P15428).
T1 construct: comprising residues 3–256 of the human HPGD gene (GenBank identifier: 1203982); His6 (GHHHHHH, behind the TEV site) (C, cleaved yes); made in house; host or cells: E. coli BL21(DE3)-R3
T1 sequence (P15428 3-256): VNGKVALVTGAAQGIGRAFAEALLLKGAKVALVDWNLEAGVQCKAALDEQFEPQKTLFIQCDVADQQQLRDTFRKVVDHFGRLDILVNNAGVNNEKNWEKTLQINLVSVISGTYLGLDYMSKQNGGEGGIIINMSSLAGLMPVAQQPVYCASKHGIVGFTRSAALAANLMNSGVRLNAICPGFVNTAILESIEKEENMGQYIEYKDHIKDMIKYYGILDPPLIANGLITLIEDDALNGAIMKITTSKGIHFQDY
Briefly: qHTS and 24-point re-test: fluorescence assay of NAD+ reduction to NADH on PGE2 oxidation (PubChem AID 894). The format is biochemical. The method, then:
The assay was miniaturized to a 4-µL volume in 1536-well format: enzyme (3 µL) was dispensed first, followed by a pintool transfer of library compounds dissolved in DMSO. After equilibration, a substrate dispense (1 µL) initiated the enzymatic reaction (see Materials and Methods, for detailed protocol description). […] Hits associated with low-efficacy (<40% maximum inhibition), incomplete curves, as well as those displaying only a single-point inhibition at the top concentration tested were eliminated from further consideration. Similarly, the collection of real-time kinetic data allowed the autofluorescence of each compound to be evaluated by comparing the initial fluorescence read at top concentration with the mean value of uninhibited assay controls: compounds whose top-concentration initial well fluorescence exceeded six standard deviations over the mean were flagged as potential autofluorescent artifacts, [28] (see example in supplementary information Figure S1E). The complete screening and followup results are available in PubChem (PubChem Assay ID 894).
The enzymatic reaction was performed in 50 mM Tris-HCl pH 8.0, containing 0.01% Tween 20. […] The high-throughput screen was performed on a fully integrated robotic system (Kalypsys Inc, San Diego, CA) as described elsewhere. Library compounds, arrayed as seven-point inter-plate concentration series, were screened from the lowest (3.5 nM) to the highest (57.5 µM) concentration, with plates containing DMSO only, serving to note any systematic drifts in the signal, interspersed evenly throughout the screen (approximately every 50 plates). Briefly, 3 µL of reagents were dispensed into 1536-well Greiner black solid-bottom assay plates using integrated nanoliter solenoid-technology dispensers. Compounds and controls (23 nL) were transferred via Kalypsys pintool equipped with 1,536-pin array (10-nL slotted pins; V&P Scientific, Palo Alto, CA). After a 15-minute incubation (to allow for interaction between compound and enzyme), a 1-µL substrate addition step initiated the reaction. Kinetic data were collected on a ViewLux High-throughput CCD imager (Perkin-Elmer) equipped with standard UV fluorescence optics (exc. 340 nm, em. 450 nm).
Starting fluorescence intensity and the change in fluorescence over the two-minute initial rate period were recorded for every well. Screening data were normalized against no-enzyme (64 wells, columns 3 and 4) and no-compound (32 wells located in column 1) controls, and concentration-response relationships were derived as described previously. A four-parameter Hill equation [47] was fitted to the concentration-response data using publicly available algorithms (http://www.ncgc.nih.gov/pub/openhts/curvefit/).
In general terms: Quantitative high-throughput screening tests each substance at several concentrations.

Experiment [2] concerns the target T1, human 15-PGDH. Briefly: Differential scanning fluorimetry (DSF), thermal stabilization. To be noted: 1 µM protein, compound 50 or 250 µM, N/A = no unfolding transition observed in DSF; for ∆Tm [°C] NAD+: with 200 µM NAD+; for ∆Tm [°C] NADH: with 200 µM NADH; for ∆Tm [°C] apo: without cofactor. The class given is binding. The method, then: A correlation between the ΔTm and the inhibitory potency has been shown in a number of protein-ligand systems, particularly for kinases [32]–[34].
Studies to assess the thermal stability of human 15-PGDH in presence of compounds were performed as described previously, with variations. Briefly, the protein was diluted to a final assay concentration of 1 µM in 100 mM Tris buffer pH 8.0, containing 0.01% Tween-20 and 1∶1000 SYPRO orange dye (Invitrogen). […] Compounds were added at a ratio of 1∶5 from appropriate stock solutions in 10% (v/v) DMSO to comprise either 50 or 250 µM final concentrations. Heat denaturation curves were recorded using a RT-PCR instrument (Mx3005p, Agilent) applying a temperature gradient of 2°C/min. […] 2.5 (ftp://ftp.sgc.ox.ac.uk/pub/biophysics) and PRISM 5.0 (GraphPad Software, Inc.).
For orientation: DSF heats the sample and reads unfolding from a dye or from intrinsic fluorescence.

[3] abbreviates: potency in 24-point titrations on re-test, 20 nM 15-PGDH, 1 mM NAD+, 30 µM PGE2, pH 8.0, read-out: qHTS IC50.

Turning to `O=C(c1ccc(N2C(=O)C3CC=C(Cl)CC3C2=O)cc1)N1CCCCC1` (stereo not drawn) [Compound 1], on human 15-PGDH [1] (setting [3]), the IC50 is 251 nM. Further, on human 15-PGDH [2], the “∆Tm [°C] NAD+” value came to 3.0 °C, the “∆Tm [°C] NADH” value stood at 6.1 °C and the “∆Tm [°C] apo” value was -0.1 °C.
On the same counts, the results for `C=C(C(=O)OC)C1CCC2(C)C(OC(=O)C(Cc3ccc(O)cc3)OC(=O)C(O)C(C)C)CCC(O)(COC3OC(CO)C(O)C(O)C3O)C2C1O` (stereo not drawn) [Compound 2] are 794 nM, 1.7 °C, 6.0 °C and -0.6 °C.
On the same counts, the results for `CCCCCCOCCCCc1ccc(-c2ccc(OCCCCCCC3CC3)nc2)nn1` [Compound 3] are 562 nM, 2.1 °C, 6.7 °C and -0.6 °C.
With `COc1ccccc1C(=O)Nc1ccc(C(=O)N2CCCC2)cc1` [Compound 4], the half-maximal inhibitory concentration (IC50) at human 15-PGDH [1] (setting [3]) is 1000 nM. Further, at human 15-PGDH [2], the “∆Tm [°C] NAD+” value was 2.2 °C, the “∆Tm [°C] NADH” value was found to be 4.7 °C and the “∆Tm [°C] apo” value worked out at 0.3 °C.
With `CC1CCN(C(=O)c2ccc(CSc3ccc(Cl)cc3)cc2)CC1` [Compound 5], the IC50 at human 15-PGDH [1] (read-out: qHTS IC50) is 631 nM. Also, at human 15-PGDH [2], the “∆Tm [°C] NAD+” value was 2.3 °C, the “∆Tm [°C] NADH” value amounted to 7.1 °C and the “∆Tm [°C] apo” value is -0.8 °C.
Taken in the same sequence, the figures for `O=C(c1ccc(COc2ccccc2Br)cc1)N1CCCCC1` [Compound 7] were 89 nM, 7.1 °C, 10.6 °C and -0.1 °C.
In the case of `C=CCN1C(=O)[C@@H](CC(=O)Nc2cc(C)ccc2C)SC1=Nc1cc(C)cc(C)c1` [Compound 8], at human 15-PGDH [1] (setting [3]), the IC50 was found to be 200 nM. Also, at human 15-PGDH [2], the “∆Tm [°C] NAD+” value amounted to 3.0 °C, the “∆Tm [°C] NADH” value was 6.6 °C and the “∆Tm [°C] apo” value was -1.4 °C.
On the same counts, the results for `O=C(O)CC1(CO)CC1` [Compound 9] are 224 nM, 2.2 °C, 7.8 °C and -1.1 °C.
On the same counts, the results for `CC1CCCN(C(=O)c2ccc(COc3ccccc3Br)cc2)C1` (stereo not drawn) [Compound 11] are 126 nM, 3.8 °C, 10.6 °C and -0.4 °C.
Turning to `CN(Cc1cccc(Cl)c1)c1ccc(S(C)(=O)=O)cc1S(C)(=O)=O` [Compound 12], the IC50 on human 15-PGDH [1] (setting [3]) amounted to 355 nM. On human 15-PGDH [2], the “∆Tm [°C] NAD+” value is 2.2 °C, the “∆Tm [°C] NADH” value stood at 7.1 °C and the “∆Tm [°C] apo” value is -1.6 °C.
Taken in the same sequence, the figures for `C=CCOC12Oc3ccc(Oc4ccc(OC)c(C=O)c4)cc3C3C(CCCCO)C(CCCCO)C=C(C(=NOCC)CC1N(CCC)C(=O)OCCOCc1ccccc1)C32` (stereo not drawn) [Compound 14] were 251 nM, 3.2 °C, 7.8 °C and -1.0 °C.
Consider `Cc1cc(NC(=O)COC(=O)c2cccc(S(=O)(=O)NC(C)(C)C)c2)no1` [Compound 16], for which, on human 15-PGDH [1] (setting [3]), the IC50 worked out at 224 nM. Also, at human 15-PGDH [2], the “∆Tm [°C] NAD+” value was found to be 3.5 °C, the “∆Tm [°C] NADH” value is 7.8 °C and the “∆Tm [°C] apo” value was -1.8 °C.
With `C[C@H]1CCCCN1C(=O)CSc1nnc(-c2ccccc2F)o1` [Compound 17], the half-inhibitory concentration (IC50) at human 15-PGDH [1] (setting [3]) stood at 708 nM. On human 15-PGDH [2], the “∆Tm [°C] NAD+” value came to 3.3 °C, the “∆Tm [°C] NADH” value turned out to be 4.4 °C and the “∆Tm [°C] apo” value stood at 0.1 °C.
Taken in the same sequence, the figures for `Cc1ccccc1C(=O)N1CCc2ccccc2C1` [Compound 18] were 2510 nM, 1.5 °C, 2.2 °C and -1.1 °C.
As for `COC(=O)c1cc(CNC(=O)C2(c3ccc(Cl)cc3)CC2)ccc1OC` [Compound 20], at human 15-PGDH [1] (setting [3]), the IC50 came to 224 nM. Further, at human 15-PGDH [2], the “∆Tm [°C] NAD+” value came to 3.1 °C, the “∆Tm [°C] NADH” value worked out at 7.9 °C and the “∆Tm [°C] apo” value is 0.3 °C.
Taken in the same sequence, the figures for `CCCC(NC(=O)Cn1c(-c2cccs2)n[nH]c1=S)c1ccccc1` (stereo not drawn) [Compound 23] were 2240 nM, 1.2 °C, 1.6 °C and -0.4 °C.
As for `CN(C)C(=O)C(NCCc1c[nH]c2ccccc12)c1ccccc1` (stereo not drawn) [Compound 29], the IC50 on human 15-PGDH [1] (setting [3]) came out at 501 nM. Further, on human 15-PGDH [2], the “∆Tm [°C] NAD+” value was determined as 2.7 °C, the “∆Tm [°C] NADH” value is 8.4 °C and the “∆Tm [°C] apo” value is -0.1 °C.
Taken in the same sequence, the figures for `COc1ccccc1NS(=O)(=O)c1cc(C(=O)N2CCC2)ccc1C` [Compound 30] were 562 nM, 2.4 °C, 6.4 °C and 0.2 °C.
On to `CCCCCCCCNCCOCCOCCOCCOCCNCCCCCCCC` [Compound 31], for which the IC50 on human 15-PGDH [1] (setting [3]) came to 3980 nM. Besides, on human 15-PGDH [2], the “∆Tm [°C] NAD+” value was found to be 1.1 °C, the “∆Tm [°C] NADH” value was determined as 4.8 °C and the “∆Tm [°C] apo” value was -0.1 °C.
On the same counts, the results for `CCCC(C(=O)O)C(C)(C)O` (stereo not drawn) [Compound 32] are 282 nM, 3.9 °C, 9.6 °C and -1.4 °C.
Take `CCCC(CCCCCCC(=O)c1cn(CCCC(=O)OCC)c2ccccc12)c1ccc(CC(C)C)cc1` (stereo not drawn) [Compound 34]: the concentration for half-maximal inhibition (IC50) on human 15-PGDH [1] (setting [3]) was found to be 794 nM. On human 15-PGDH [2], the “∆Tm [°C] NAD+” value worked out at 2.0 °C, the “∆Tm [°C] NADH” value stood at 6.4 °C and the “∆Tm [°C] apo” value is 0.1 °C.
For the molecule `COc1ccc(C2C(C(=O)O)c3ccccc3C(=O)N2Cc2ccccc2)cc1` (stereo not drawn) [Compound 35], at human 15-PGDH [1] (setting [3]), the IC50 was 7080 nM. At human 15-PGDH [2], the “∆Tm [°C] NAD+” value is 1.2 °C, the “∆Tm [°C] NADH” value stood at 2.2 °C and the “∆Tm [°C] apo” value was -0.1 °C.
As to `Cc1ccc(NC(=O)COc2cccc(C=C(C#N)C(=O)Nc3cccc(Cl)c3C)c2)cc1C` [Compound 77], the IC50 on human 15-PGDH [1] (setting [3]) turned out to be 14100 nM.
As for `COc1ccc(/C=C2\SC(=O)N(CCNC(=O)c3ccc(Br)o3)C2=O)cc1OC` [Compound 81], the IC50 on human 15-PGDH [1] (setting [3]) was determined as 1580 nM.
`CN1CCCc2cccc(C[S+]([O-])c3ncc[nH]3)c21` (stereo not drawn) [Compound 82]: at human 15-PGDH [1] (setting [3]), the IC50 was found to be 501 nM.
For the molecule `CC(C)CC=NCCCCCCN=CCC(C)C` [Compound 83], the IC50 at human 15-PGDH [1] (setting [3]) was 1260 nM.
On the same count and under the same terms, the figure for `COc1ccc(C(=O)c2ccccc2O)c(O)c1` [Compound 85] is 1000 nM; for `O=c1oc2c(O)c(O)cc3c(=O)oc4c(O)c(O)cc1c4c23` [Compound 86] it is 45 nM; for `CC1(C)Oc2c(N=C=O)ccc(Cl)c2C1=O` [Compound 87] it is 3160 nM.
For `O=C1Nc2ccc(I)cc2/C1=C/c1cc(Br)c(O)c(Br)c1` [GW5074, reference compound], the IC50 at human 15-PGDH [1] (control inhibitor, 16-point dilution series in duplicate on every qHTS plate, read-out: average IC50) was 10400 nM.
